Test results as given in PMC4399838, “Antipsychotic-Like Effect of the Muscarinic Acetylcholine Receptor Agonist BuTAC in Non-Human Primates” (PLoS ONE, 2015).

How the values were obtained:
[1] = target: T1, human M4 muscarinic receptor (Homo sapiens, UniProt P08173); set-up: method as in Watt et al. 2013 [10]; settings: ref Watt et al. 2013 [10], cited from earlier work
T1 construct: purchased PerkinElmer Life and Analytical Sciences, Boston, MA
T1 sequence (P08173 1-479): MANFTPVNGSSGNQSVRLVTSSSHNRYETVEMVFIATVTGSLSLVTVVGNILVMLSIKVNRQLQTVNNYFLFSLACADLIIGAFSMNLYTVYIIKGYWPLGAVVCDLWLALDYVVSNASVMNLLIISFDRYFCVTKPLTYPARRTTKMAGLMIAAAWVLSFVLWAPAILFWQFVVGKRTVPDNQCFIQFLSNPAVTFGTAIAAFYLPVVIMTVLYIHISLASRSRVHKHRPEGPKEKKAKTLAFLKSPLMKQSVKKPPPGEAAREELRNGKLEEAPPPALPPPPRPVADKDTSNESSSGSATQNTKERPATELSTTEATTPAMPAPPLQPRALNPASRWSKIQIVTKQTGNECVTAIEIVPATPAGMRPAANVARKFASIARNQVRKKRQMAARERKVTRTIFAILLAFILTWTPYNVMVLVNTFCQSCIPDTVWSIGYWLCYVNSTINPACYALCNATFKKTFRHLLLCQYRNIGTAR

M5AChR = target: T2, M5AChR (Homo sapiens, UniProt P08912); test: Competitive radioligand binding
T2 sequence (P08912 1-532): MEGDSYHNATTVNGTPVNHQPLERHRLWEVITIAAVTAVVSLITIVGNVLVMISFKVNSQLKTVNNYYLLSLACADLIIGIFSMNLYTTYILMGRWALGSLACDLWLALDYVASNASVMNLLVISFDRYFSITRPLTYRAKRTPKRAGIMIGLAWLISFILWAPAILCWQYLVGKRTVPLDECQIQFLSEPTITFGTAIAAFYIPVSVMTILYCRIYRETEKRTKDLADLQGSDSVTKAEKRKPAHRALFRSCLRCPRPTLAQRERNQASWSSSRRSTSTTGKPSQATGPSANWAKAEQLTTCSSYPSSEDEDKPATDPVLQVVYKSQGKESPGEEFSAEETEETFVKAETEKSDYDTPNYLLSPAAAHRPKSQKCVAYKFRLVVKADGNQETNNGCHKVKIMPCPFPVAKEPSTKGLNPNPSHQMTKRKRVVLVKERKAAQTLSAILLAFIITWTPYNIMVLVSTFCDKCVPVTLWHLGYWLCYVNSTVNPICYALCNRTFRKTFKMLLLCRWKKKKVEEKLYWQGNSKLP

M3AChR = M3AChR (Homo sapiens, UniProt P20309); test: Competitive radioligand binding
M2AChR = target: T3, M2AChR (Homo sapiens, UniProt P08172); test: Competitive radioligand binding
T3 sequence (P08172 1-466): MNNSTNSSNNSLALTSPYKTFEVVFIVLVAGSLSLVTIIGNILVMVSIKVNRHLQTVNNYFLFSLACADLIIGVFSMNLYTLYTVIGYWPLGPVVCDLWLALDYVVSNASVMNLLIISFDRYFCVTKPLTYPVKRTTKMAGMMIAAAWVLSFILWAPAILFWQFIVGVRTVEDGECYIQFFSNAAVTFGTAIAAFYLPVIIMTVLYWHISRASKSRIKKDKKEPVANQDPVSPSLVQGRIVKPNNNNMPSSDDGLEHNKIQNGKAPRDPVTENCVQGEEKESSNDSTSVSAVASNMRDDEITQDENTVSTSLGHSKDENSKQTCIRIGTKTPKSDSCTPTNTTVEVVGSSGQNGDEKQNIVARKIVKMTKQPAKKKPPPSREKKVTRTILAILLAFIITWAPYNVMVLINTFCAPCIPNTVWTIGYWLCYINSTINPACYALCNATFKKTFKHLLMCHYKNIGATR

M1AChR = target: T4, M1AChR (Homo sapiens, UniProt P11229); test: Competitive radioligand binding
T4 sequence (P11229 1-460): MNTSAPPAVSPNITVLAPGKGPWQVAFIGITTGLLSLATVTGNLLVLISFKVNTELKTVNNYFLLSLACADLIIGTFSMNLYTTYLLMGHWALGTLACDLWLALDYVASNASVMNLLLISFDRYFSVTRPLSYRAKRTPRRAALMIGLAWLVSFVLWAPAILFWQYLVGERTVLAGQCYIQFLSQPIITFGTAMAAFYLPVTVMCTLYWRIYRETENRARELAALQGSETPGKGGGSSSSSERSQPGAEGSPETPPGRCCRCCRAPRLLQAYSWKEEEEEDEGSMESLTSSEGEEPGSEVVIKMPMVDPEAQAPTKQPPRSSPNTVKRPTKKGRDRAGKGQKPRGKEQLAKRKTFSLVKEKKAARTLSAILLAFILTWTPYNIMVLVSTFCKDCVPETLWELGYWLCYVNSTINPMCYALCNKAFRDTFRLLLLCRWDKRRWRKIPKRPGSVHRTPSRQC

Sequence of M3AChR (P20309 whole entry): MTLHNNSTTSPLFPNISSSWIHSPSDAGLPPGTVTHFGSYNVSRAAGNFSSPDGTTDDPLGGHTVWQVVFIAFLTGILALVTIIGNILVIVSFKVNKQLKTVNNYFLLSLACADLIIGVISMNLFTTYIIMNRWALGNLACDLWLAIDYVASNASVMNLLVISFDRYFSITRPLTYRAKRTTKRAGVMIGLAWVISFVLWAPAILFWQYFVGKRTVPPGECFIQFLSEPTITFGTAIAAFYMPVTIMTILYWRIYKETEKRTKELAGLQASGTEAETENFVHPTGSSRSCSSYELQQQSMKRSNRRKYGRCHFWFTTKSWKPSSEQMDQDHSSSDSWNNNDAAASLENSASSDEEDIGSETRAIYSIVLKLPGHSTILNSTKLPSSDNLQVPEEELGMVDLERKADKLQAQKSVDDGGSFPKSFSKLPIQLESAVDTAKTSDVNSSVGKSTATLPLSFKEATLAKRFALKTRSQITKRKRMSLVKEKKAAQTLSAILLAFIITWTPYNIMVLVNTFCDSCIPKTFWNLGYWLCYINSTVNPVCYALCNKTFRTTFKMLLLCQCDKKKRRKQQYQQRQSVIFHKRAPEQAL

Row | SMILES | Rel pEC50 ([1]; agonist mode, negative log-transformed) | % Emax ([1]; agonist mode) | Rel pIC50 ([1]; antagonist mode, negative log-transformed) | % Inhibition ([1]; antagonist mode) | Ki (M5AChR) | Ki (M3AChR) | Ki (M2AChR) | Ki (M1AChR)
1 | CCCCSc1nsnc1[C@H]1CN2CCC[C@H]1C2 [BuTAC, (5R,6R)-6-(3-butylthio-1,2,5-thiadiazol-4-yl)-1-azabicyclo[3.2.1]octane] | 10.27 ± 10.31 M | 35.53 ± 11.51% | 9.19 ± 9.13 M | 57.55 ± 3.22% |  |  |  | 
2 | CCCSc1nsnc1[C@H]1CN2CCC[C@H]1C2 [PTAC, (5R,6R) 6-(3-propylthio-1,2,5-thiadiazol-4-yl)-1-azabicyclo-[3.2.1]-octane] |  |  |  |  | 0.372 nM | 0.398 nM | 3.8 nM | 1.05 nM
